{"source": "patent US11806364B2", "about": "“Method for producing myeloid-derived suppressor cells, myeloid-derived suppressor cells produced thereby, and methods thereof” (Industry-Academic Cooperation Foundation, Yonsei University, priority 2017, dated 2023)", "key": {"bone marrow cells [1]": {"tested_on": "bone marrow cells", "assay": "Cytokine applied in place of the TLR agonist, formation of M-MDSCs and dendritic cells", "type": "cell-based", "settings": "day 6; for M-MDSCs are formed and differentiation into dendritic cells is inhibited: 3 method", "source_text": "On day 6 of culture, it was identified whether M-MDSCs and dendritic cells are formed."}, "bone marrow cells [2]": {"tested_on": "bone marrow cells", "assay": "Differentiation of bone marrow cells with GM-CSF, proportion of CD11c+ cells", "type": "cell-based, C57BL/6 mice", "settings": "for capacity of inhibiting dendritic cells (proportion of CD11c^+ cells): 50 ng/ml, 3 method (initiation of differentiation and day 3), day 6 of culture", "experimental": "Whole bone marrow cells in the femurs were harvested from C57BL/6 mice using a bone marrow harvesting needle. The harvested bone marrow cells were washed with PBS and red blood cells (RBCs) were removed using a red blood cell lysis buffer (Sigma Aldrich). The bone marrow cells were dispensed in a 6-well plate (1×10^6 cells/ml; 2 ml/well) and cultured, under a condition of 5% CO2 and 37° C., in complete RPMI 1640 (c-RPMI 1640) medium supplemented with 100 U/mL of penicillin/streptomycin (Lonza, Basel, Switzerland), 10% fetal bovine serum (Lonza), 50 μM mercaptoethanol (Lonza), 0.1 mM non-essential amino acids (Lonza), and GM-CSF (20 ng/mL). […] On day 3 of culture, the bone marrow cells and 1 ml of c-RPMI 1640 medium were added to each well. On day 6 of culture, the cells were collected and stained with Fluorescein-conjugated CD11c mAb to measure a proportion of CD11c^+ cells. […] In addition, in a case where the 3 method is used, proportions of CD11c^+ cells were checked for respective treatment concentrations of each TLR agonist (TLR2 agonist (Pam3)—1, 10, and 50 ng/ml; TLR3 agonist (Poly I:C)—10, 100, and 500 ng/ml; TLR4 agonist (LPS)—1, 10, and 50 ng/ml; TLR7 agonist (imiquimod)—1, 10, and 50 ng/ml; TLR9 agonist (CPG:ODN)—1, 10, and 50 ng/ml)."}, "bone marrow cells [3]": {"tested_on": "bone marrow cells", "assay": "Ly6G/Ly6C expression patterns in C57BL/6 and MyD88^−/− mice", "type": "cell-based, C57BL/6 mice and C57BL/6 MyD88^−/− mice", "settings": "MyD88 dependence study, 3 method", "experimental": "In order to identify whether differentiation into respective MDSCs' subtypes is induced in a MyD88-dependent manner, C57BL/6 mice and C57BL/6 MyD88^−/− mice were treated in the same manner as the 3 method in Example 1, and then expression patterns of Ly6G and Ly6C were identified in the same manner as in Example 4 (FIG. 13)."}, "bone marrow cells [4]": {"tested_on": "bone marrow cells", "assay": "MDSC subtypes by Gr-1, Ly6G and Ly6C expression", "type": "cell-based, C57BL/6 mice", "source_text": "As illustrated in Example 3, it can be seen that the cells, which have been induced by differentiation from bone marrow cells after TLR stimulation according to the 3 method in Example 1, are MDSCs. On the other hand, subtypes of the MDSCs may be divided into monocytic-MDSCs (M-MDSCs) and granulocytic-MDSCs (G-MDSCs). Gr-1^high cells mostly correspond to G-MDSCs, and Gr-1^low cells may be classified as M-MDSCs.\nThus, for MDSCs harvested after performing culture for 6 days with a Gr-1 antibody using the 3 method in Example 1, an expression level of Gr-1 was checked. The results are illustrated in FIGS. 9 and 10.\nFurthermore, in order to accurately classify subtypes of MDSCs, their expression patterns were identified using Ly6G and Ly6C antibodies."}, "bone marrow cells [5]": {"tested_on": "bone marrow cells", "assay": "Phenotypic analysis of cells induced by TLR stimulation", "type": "cell-based, C57BL/6 mice", "settings": "3 method, culture for 6 days", "source_text": "The results obtained by analyzing phenotypes of cells harvested after treating bone marrow cells with a TLR agonist in the same manner as the 3 method in Example 1 and performing culture for 6 days are illustrated in FIGS. 7 and 8. […] From these expression patterns, it was predictable that the cells induced by differentiation from the bone marrow cells are myeloid-derived suppressor cells (MDSCs)."}, "bone marrow cells [6]": {"tested_on": "bone marrow cells", "assay": "Proportion of CD11c+MHC-II+ cells after TLR agonist treatment, wild type", "type": "cell-based", "settings": "C57BL/6 mice, 3 method", "experimental": "Additionally, in order to identify whether an effect of inhibiting differentiation into dendritic cells is induced in a MyD88-dependent manner, C57BL/6 mice and C57BL/6 MyD88^−/− mice were treated with a TLR agonist in the same manner as the 3 method in Example 1, to induce differentiation, and then a proportion of CD11c^+MHC-II^+ cells was measured. The results are illustrated in FIGS. 5 and 6."}, "bone marrow cells [7]": {"tested_on": "bone marrow cells", "assay": "IL-6 or IL-6 receptor blocker together with TLR9 agonist, proportions of MDSCs and dendritic cells", "type": "cell-based", "settings": "applied together with a TLR9 agonist, 3 method, day 6", "source_text": "In order to evaluate differentiation into M-MDSCs caused by IL-6 and functions of the M-MDSCs, recombinant IL-6 or an IL-6 receptor blocker was applied together with a TLR9 agonist using the 3 method in Example 1, and then the cells were harvested on day 6 of culture. Among the cells harvested according to the respective treatments, proportions of MDSCs and dendritic cells were checked."}, "M-MDSCs": {"tested_on": "M-MDSCs", "assay": "Secondary differentiation into dendritic cells of M-MDSCs induced with TLR9 agonist plus IL-6 or IL-6 receptor blocker", "type": "cell-based", "settings": "GM-CSF 5 days; compared with only TLR9 agonist", "experimental": "In order to identify whether the M-MDSCs induced according to respective treatments as described above are secondarily differentiated into dendritic cells, culture was performed for 5 days in the same manner as the method of inducing differentiation into dendritic cells in Example 8."}, "bone marrow cells [8]": {"tested_on": "bone marrow cells", "assay": "TLR9 agonist on bone marrow cells of type I IFN receptor knockout mice", "type": "cell-based", "settings": "3 method, day 6", "experimental": "Finally, in order to accurately check the function of type I IFN, bone marrow cells harvested from wild-type mice and type I IFN receptor knockout mice were treated with a TLR9 agonist using the 3 method in Example 1; and on day 6 of culture, degree of formation of PDCA-1^+ M-MDSCs and dendritic cells was evaluated."}, "bone marrow cells [9]": {"tested_on": "bone marrow cells", "assay": "Cytokines induced at early differentiation stages after TLR stimulation", "type": "cell-based", "settings": "for cytokines induced at early differentiation stages: 8, 18, and 36 hours after stimulation with TLR agonist; for IFN-γ, IL-15, IL-1β, TGF-β, IL-4, IL-12p70, IL-10, and FLT2L induction: not shown by data", "experimental": "Hereinafter, experiments were conducted assuming that for respective M-MDSCs induced by differentiation upon treatment with a TLR2 or TLR9 agonist, differences in phenotype, T cell inhibition capacity, regulatory T cell formation capacity, and differentiation into dendritic cells are due to different cytokine secretion induced by each TLR stimulation. Therefore, cytokines induced at early differentiation stages (8, 18, and 36 hours after stimulation with TLR agonist) after treatment of bone marrow cells with a TLR2 or TLR9 agonist were analyzed."}, "Ly6C^+ M-MDSCs": {"tested_on": "Ly6C^+ M-MDSCs", "assay": "Ly6C+ M-MDSCs treated with GM-CSF, proportions of CD11c+ cells", "type": "cell-based", "settings": "Ly6C^+ M-MDSCs of day 6, GM-CSF for 3 days", "experimental": "Then, GM-CSF was applied in the same manner as in Example 8 and culture was performed for 3 days. Subsequently, proportions of CD11c^+ cells were checked for the respective treatments.\nThen, on day 6 of culture, only Ly6C^+ M-MDSCs were collected. Subsequently, GM-CSF was applied in the same manner as in Example 8 and culture was performed for 3 days. Then, proportions of CD11c^+ cells were checked for the respective treatments."}}}
{"compound": "CCCCC[C@H](O)/C=C/[C@H]1[C@H](O)CC(=O)[C@@H]1C/C=C\\CCCC(=O)O", "note": "[PGE2]", "values": [{"measurement": "M-MDSCs are formed and differentiation into dendritic cells is inhibited", "setting": "bone marrow cells [1]", "value": "in a concentration-dependent manner"}]}
{"compound": "CC(C)Cn1cnc2c(N)nc3ccccc3c21", "note": "[TLR7 agonist, imiquimod]", "values": [{"measurement": "capacity of inhibiting dendritic cells (proportion of CD11c^+ cells)", "setting": "bone marrow cells [2]", "value": "strongly induced"}, {"measurement": "Ly6C^high M-MDSCs (X4 cells)", "setting": "bone marrow cells [3]", "value": "induced"}, {"measurement": "Gr-1^high MDSCs", "setting": "bone marrow cells [4]; 3 method, 6 days", "value": "induced at a high level"}, {"measurement": "Ly6C^high M-MDSCs (X4 cells)", "setting": "bone marrow cells [4]; Ly6G and Ly6C antibodies", "value": "induced"}, {"measurement": "B220, another marker of pDCs", "setting": "bone marrow cells [5]", "value": "no significant difference"}, {"measurement": "PDCA-1, a marker of plasmacytoid dendritic cells", "setting": "bone marrow cells [5]", "value": "highly induced"}, {"measurement": "proportion of CD11c^+MHC-II^+ cells", "setting": "bone marrow cells [6]", "value": "decreased"}]}
{"compound": "IFN-α", "values": [{"measurement": "M-MDSCs are formed and differentiation into dendritic cells is inhibited", "setting": "bone marrow cells [1]", "value": "in a concentration-dependent manner"}]}
{"compound": "IL-6: recombinant IL-6 protein", "values": [{"measurement": "differentiation into PDCA-1^+ M-MDSCs", "setting": "bone marrow cells [7]", "value": "increased"}, {"measurement": "differentiation into dendritic cells", "setting": "bone marrow cells [7]", "value": "further decreased"}, {"measurement": "M-MDSCs are formed and differentiation into dendritic cells is inhibited", "setting": "bone marrow cells [1]", "value": "in a concentration-dependent manner"}, {"measurement": "M-MDSCs having the phenotype CD11c^−CD11b^+Ly6G^− Ly6C^+PDCA-1^−", "setting": "bone marrow cells [1]", "value": "induced in large quantities"}, {"measurement": "degree of differentiation of M-MDSCs into dendritic cells", "setting": "M-MDSCs", "value": "remarkably decreased"}]}
{"compound": "ODN1826 [TLR9 agonist]", "values": [{"measurement": "capacity of inhibiting dendritic cells (proportion of CD11c^+ cells)", "setting": "bone marrow cells [2]", "value": "strongly induced"}, {"measurement": "Ly6C^high M-MDSCs (X4 cells)", "setting": "bone marrow cells [3]", "value": "induced"}, {"measurement": "induction of MDSCs", "setting": "bone marrow cells [8]", "value": "not induced"}, {"measurement": "Gr-1^high MDSCs", "setting": "bone marrow cells [4]; 3 method, 6 days", "value": "induced at a high level"}, {"measurement": "Ly6C^high M-MDSCs (X4 cells)", "setting": "bone marrow cells [4]; Ly6G and Ly6C antibodies", "value": "induced"}, {"measurement": "B220, another marker of pDCs", "setting": "bone marrow cells [5]", "value": "no significant difference"}, {"measurement": "PDCA-1, a marker of plasmacytoid dendritic cells", "setting": "bone marrow cells [5]", "value": "highly induced"}, {"measurement": "cytokines induced at early differentiation stages", "setting": "bone marrow cells [9]", "value": "TNF-α, IL-6, IFN-α, and IFN-β"}, {"measurement": "IFN-γ, IL-15, IL-1β, TGF-β, IL-4, IL-12p70, IL-10, and FLT2L induction", "setting": "bone marrow cells [9]", "value": "not induced"}, {"measurement": "proportion of CD11c^+MHC-II^+ cells", "setting": "bone marrow cells [6]", "value": "decreased"}]}
{"compound": "Pam3CSK4 [TLR2 agonist]", "values": [{"measurement": "differentiation into dendritic cells (proportions of CD11c^+ cells)", "setting": "Ly6C^+ M-MDSCs", "value": "hardly induced"}, {"measurement": "capacity of inhibiting dendritic cells (proportion of CD11c^+ cells)", "setting": "bone marrow cells [2]", "value": "strongly induced"}, {"measurement": "Ly6C^int M-MDSCs (X3 cells)", "setting": "bone marrow cells [3]", "value": "induced"}, {"measurement": "Gr-1^low MDSCs", "setting": "bone marrow cells [4]; 3 method, 6 days", "value": "induced at a high level"}, {"measurement": "Ly6C^int M-MDSCs (X3 cells)", "setting": "bone marrow cells [4]; Ly6G and Ly6C antibodies", "value": "induced"}, {"measurement": "cytokines induced at early differentiation stages", "setting": "bone marrow cells [9]", "value": "TNF-α, IL-6, and PGE2"}, {"measurement": "IL-6 induction", "setting": "bone marrow cells [9]; as compared with a case of being treated with the TLR9 agonist", "value": "remarkably induced"}, {"measurement": "IFN-γ, IL-15, IL-1β, TGF-β, IL-4, IL-12p70, IL-10, and FLT2L induction", "setting": "bone marrow cells [9]", "value": "not induced"}, {"measurement": "proportion of CD11c^+MHC-II^+ cells", "setting": "bone marrow cells [6]", "value": "decreased"}]}
{"compound": "poly I:C [TLR3 agonist]", "values": [{"measurement": "inhibition of differentiation into dendritic cells (proportions of CD11c^+ cells for respective treatment concentrations)", "setting": "bone marrow cells [2]; 3 method, 1, 10, 50 ng/ml (TLR3 agonist 10, 100, 500 ng/ml)", "value": "not observed"}]}
